Assay results taken from PubChem BioAssay (NCI).
“And” between values parts separate entries of the source, which are not always exact repeats. Identical values can stand only once.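 48-hour exposure; five concentrations; linearly interpolated endpoints. Here, GI50 denotes the concentration required for 50% inhibition of growth. TGI: concentration producing complete growth inhibition.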

Legend:
Experiment in all cases: NCI anticancer screen, dose series, 48 h
786-0 renal = test system: 786-0 renal
EKVX NSCLC = test system: EKVX NSCLC
HCC-2998 colon = test system: HCC-2998 colon
KM12 colon = test system: KM12 colon
SF-268 CNS = test system: SF-268 CNS
SK-MEL-2 melanoma = test system: SK-MEL-2 melanoma
SNB-19 CNS = test system: SNB-19 CNS
SR leukemia = test system: SR leukemia
U251 CNS = test system: U251 CNS
UACC-257 melanoma = test system: UACC-257 melanoma

Structure (SMILES) | GI50 (786-0 renal) | TGI (786-0 renal) | GI50 (EKVX NSCLC) | TGI (EKVX NSCLC) | GI50 (HCC-2998 colon) | TGI (HCC-2998 colon) | GI50 (KM12 colon) | TGI (KM12 colon) | GI50 (SF-268 CNS) | TGI (SF-268 CNS) | GI50 (SK-MEL-2 melanoma) | TGI (SK-MEL-2 melanoma) | GI50 (SNB-19 CNS) | TGI (SNB-19 CNS) | GI50 (SR leukemia) | TGI (SR leukemia) | GI50 (U251 CNS) | TGI (U251 CNS) | GI50 (UACC-257 melanoma) | TGI (UACC-257 melanoma)
COc1ccc2c(c1)C(=O)c1c-2n(CCCn2ccnc2)c(=O)c2ccccc12 | 239 nM | 1.66 µM | 1510 nM | 11.9 µM | 720 nM | 2.91 µM | 729 nM | 3.78 µM | 214 nM | > 25.3 µM | 843 nM | 8.82 µM | 293 nM | > 46.5 µM | 76.5 nM | 7.81 µM | 126 nM | 2.6 µM | 1.14 µM | 10.9 µM
CCOC(=O)c1c(CN2CCN(c3ccccc3)CC2)n(-c2ccccc2)c2cc(Br)c(O)cc12 | 5230 nM | 21.5 µM | 11200 nM | 36.1 µM | 15700 nM | 32.5 µM | 8490 nM | 39.9 µM | 9630 nM | 41.4 µM | 17200 nM | 36.2 µM | 21000 nM | 53.5 µM | 3820 nM | > 100 µM | 6430 nM | 19 µM | 18.2 µM | 50.9 µM
CCN1C(=O)CNc2ncc(-c3ccc(-c4ncn[nH]4)nc3C)nc21 | 117 nM | 4.35 µM | 188 nM | 5.77 µM | 338 nM | 12.4 µM | 193 nM | 11.3 µM | 235 nM | 10.2 µM | 162 nM | 0.711 µM | 337 nM | 6.9 µM | 253 nM | 4.09 µM | 289 nM | 9.64 µM | 0.184 µM | 2.11 µM
Cc1cn2c(/C=C3/C(=O)N(C)c4ccccc43)c(C)nc2s1 | 20100 nM | > 100 µM | 15800 nM | > 100 µM | 7970 nM | 33.5 µM | 3380 nM | > 100 µM | 22100 nM | > 100 µM | 5330 nM | 58.3 µM | 5510 nM | 27.7 µM | 2480 nM | 7.37 µM | 8080 nM | > 100 µM | 67.8 µM | > 100 µM
CC(=O)OC[C@]12CC[C@H]3[C@@H](C[C@H]4O[C@]45[C@@H](O)C=CC(=O)[C@]35C)[C@@H]1CC[C@@H]2[C@H](C)[C@H]1CC(C)=C(C)C(=O)O1 | 241 nM and 232 nM | 0.597 µM and 0.595 µM | 601 nM and 753 nM | 1.94 µM | 822 nM and 795 nM | 2.07 µM | 467 nM and 349 nM | 1.11 µM | 397 nM and 376 nM | 1.28 µM | 752 nM and 484 nM | 1.52 µM | 700 nM and 1160 nM | 0.899 µM and 2.52 µM | 189 nM and 187 nM | 0.617 µM and 0.631 µM | 688 nM and 742 nM | 0.91 µM and 1.95 µM | 0.638 µM and 0.801 µM | 2.69 µM
COC(=O)C1=NC(=S)NC(c2ccccc2)C1c1nc2ccccc2s1 (centres undefined) |  | > 100 µM |  | > 100 µM |  | > 100 µM |  | > 100 µM |  | > 100 µM |  | > 100 µM |  | > 100 µM |  | > 100 µM |  | > 100 µM |  | > 100 µM
CC(C)c1ccc(C(=O)Nc2sc3c(c2C(N)=O)CCC(=O)C3)cc1 | 2290 nM | 10.5 µM | 1780 nM | 5.34 µM | 1850 nM | 4.23 µM | 450 nM | 1.85 µM | 571 nM | 3.45 µM | 2160 nM | 5.25 µM | 472 nM | 6.02 µM | 413 nM | 11 µM | 399 nM | 1.9 µM | 2.05 µM | 5.04 µM
Cc1cc(C)c(C(=O)CC(=O)c2cccnc2)c(C)c1 | 9450 nM | 50.1 µM | 3970 nM | 69.6 µM | 12800 nM | > 100 µM | 8010 nM | > 100 µM | 10500 nM | > 100 µM | 17300 nM | > 100 µM | 6340 nM | > 100 µM | 2810 nM | 33.2 µM | 3670 nM | > 100 µM | 27.2 µM | > 100 µM
COc1ccc2c(c1)C=C([N+](=O)[O-])C(C1OC(C)(C)OC1C1COC(C)(C)O1)O2 (centres undefined) |  | 26.5 µM |  | 21.2 µM |  | 27.7 µM |  | 4.31 µM |  | 13.5 µM |  | 4.36 µM |  | 25.7 µM |  | 6.93 µM |  | 9.83 µM |  | 6.16 µM
CN(C)P(=O)(/C(N)=N/Nc1ccc([N+](=O)[O-])cc1)N(C)C |  | > 100 µM |  | > 100 µM |  | > 100 µM |  | > 100 µM |  | > 100 µM |  | > 100 µM |  | > 100 µM |  | > 100 µM |  | > 100 µM |  | > 100 µM
CCOC(=O)NC(=O)c1cn(CCOCCOC(=O)NCCCCCCNC(=O)OCCOCCn2cc(C(=O)NC(=O)OCC)c(=O)[nH]c2=O)c(=O)[nH]c1=O |  | > 100 µM |  | > 100 µM |  | > 100 µM |  | > 100 µM |  | > 100 µM |  | > 100 µM |  | > 100 µM |  | > 100 µM |  | > 100 µM |  | > 100 µM
CC1=C2C(=O)O[C@@H](c3ccoc3)[C@]2(C)CCC1 |  | > 100 µM |  | > 100 µM |  | > 100 µM |  | > 100 µM |  | > 100 µM |  | > 100 µM |  | > 100 µM |  | > 100 µM |  | > 100 µM |  | > 100 µM
CCC1(O)C(=O)OCc2c1cc1n(c2=O)Cc2cc3ccc(C=O)cc3nc2-1 (centres undefined) | 450 nM | 9.18 µM and 4.95 µM | 15100 nM | 50 µM and > 100 µM | 2520 nM | 10.4 µM and 26.1 µM | 4830 nM | 29.7 µM and > 100 µM | 376 nM | 50 µM and 40 µM | 17600 nM | 40.6 µM and 39.2 µM | 1670 nM | 50 µM and > 100 µM | 64.7 nM |  | 1020 nM | 50 µM and 8.82 µM | 7.73 µM | 23.7 µM and 43.7 µM
COc1ccc(OC)c(/C=C/C(=O)N/N=C/c2ccc(Cl)cc2)c1 | 143 nM | > 100 µM | 704 nM | > 100 µM | 83.1 nM | 0.653 µM | 46.6 nM | > 29.1 µM | 235 nM | > 100 µM | 1060 nM | > 100 µM | 159 nM | > 100 µM | 38.9 nM | 16.4 µM | 184 nM | 1.49 µM | 36.5 µM | > 100 µM
